# Results taken from the supplement of paper PMC10307832.
# Compound: CC1(COc2ccc3c(c2)ncn3-c2ccc3cccc(N4CCC(N)CC4)c3n2)COC1 [Crenolanib] + CCNC(=O)c1noc(-c2cc(C(C)C)c(O)cc2O)c1-c1ccc(CN2CCOCC2)cc1 [Luminespib] (partner 0.01 µM)
# Assay: relative viability (nuclei count vs DMSO), 5 days (fraction); higher = more cells survive
# Conditions: first compound 1 µM
# Method in brief: (§1)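 Lung cancer cell lines in 1536-well plates got either a single drug or a fixed anchor-drug dose together with five library-drug doses (not always all listed) in √10 steps, by pin tool, on the day after seeding. Nuclei were counted after 5 days, and relative viability is the treated-to-vehicle ratio of nuclei counts. Values are medians of duplicate plates.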
row,Cell Line,relative viability
1,SW 1573,0.16
2,NCI-H1395,0.58
3,201T,1.02
4,NCI-H1975,0.185
5,HOP-62,0.813
6,NCI-H2347,0.353
7,NCI-H1355,0.665
8,NCI-H650,0.757
9,CAL-12T,0.579
10,NCI-H1666,1.03
11,H3255,0.854
12,NCI-H23,0.174
13,NCI-H1915,0.803
14,NCI-H1437,0.911
15,NCI-H322M,0.802
16,NCI-H2085,0.421
17,NCI-H1793,0.186
18,PC-3 [JPC-3],0.71
19,EKVX,0.93
20,LCLC-103H,0.863
21,NCI-H1650,0.178
22,NCI-H1944,0.655
23,NCI-H1993,0.783
24,SK-LU-1,0.211
25,ABC-1,0.611
26,NCI-H358,0.337

# Compound: O=C1NC(=O)[C@@H](c2cn3c4c(cccc24)CCC3)[C@@H]1c1c[nH]c2ccccc12 [Tivantinib] + Cc1cc(Nc2cc(N3CCN(C)CC3)nc(Sc3ccc(NC(=O)C4CC4)cc3)n2)n[nH]1 [Tozasertib] (partner 0.1 µM)
# Assay: as above
# Conditions: first compound 0.01 µM
# Method in brief: as §1
row,Cell Line,relative viability
1,NCI-H441,0.587
2,LOU-NH91,0.663
3,NCI-H2023,0.337
4,A-427,0.21
5,NCI-H460,0.405
6,NCI-H727,0.641
7,NCI-H1755,0.525
8,NCI-H520,0.471
9,NCI-H2405,0.759
10,SW 1573,0.23
11,NCI-H1395,0.76
12,201T,0.985
13,NCI-H1975,0.773
14,HOP-62,0.383
15,NCI-H2347,0.71
16,NCI-H1355,0.561
17,NCI-H650,0.857
18,CAL-12T,0.416

row,Cell Line,relative viability
1,NCI-H1666,0.624
2,H3255,0.62
3,NCI-H23,0.447
4,NCI-H1915,0.427
5,NCI-H1437,0.426
6,NCI-H322M,0.483
7,NCI-H2085,0.764
8,NCI-H1793,0.427
9,PC-3 [JPC-3],0.877
10,EKVX,0.388
11,LCLC-103H,0.426
12,NCI-H1650,0.411
13,NCI-H1944,0.257
14,NCI-H1993,0.541
15,SK-LU-1,0.331
16,ABC-1,0.209
17,NCI-H358,0.109

# Same assay, conditions: first compound 0.03162 µM
row,Cell Line,relative viability
1,NCI-H441,0.655
2,LOU-NH91,0.675
3,NCI-H2023,0.325
4,A-427,0.2
5,NCI-H460,0.31
6,NCI-H727,0.558
7,NCI-H1755,0.602
8,NCI-H520,0.494
9,NCI-H2405,0.782
10,SW 1573,0.262
11,NCI-H1395,0.747
12,201T,0.897
13,NCI-H1975,0.744
14,HOP-62,0.352
15,NCI-H2347,0.6
16,NCI-H1355,0.488
17,NCI-H650,0.61
18,CAL-12T,0.337
19,NCI-H1666,0.612
20,H3255,0.594
